Results reported in publication PMC5827532, “Triphenylphosphonium Moiety Modulates Proteolytic Stability and Potentiates Neuroprotective Activity of Antioxidant Tetrapeptides in Vitro” (Frontiers in Pharmacology, 2018).
Where two headings read alike, the source gives them in different places.

How the values were obtained:
PC-12 cells [1] = tested on: PC-12 cells
Procedure: (§1) PC-12 cells were subjected to oxidative damage by CoCl2, L-glutamic acid, or menadione and treated with the oligopeptides as follows. Briefly, the pre-grown cells were seeded in a 96-well plate at a density of 60 000 cells per well and cultured overnight in FBS-containing α-MEM. Next day, the medium was replaced by a fresh one without FBS, and further manipulations were performed in FBS-free medium. The oxidative agents and oligopeptides were supplemented to the medium in three ways: (i) the cells were pre-cultured in the presence of oligopeptides for 24 h, then the medium was replaced by a fresh one supplemented with a damaging factor and the cells were further cultured with the factor for 24 h (CoCl2, L-glutamic acid) or 3 h (menadione) (‘pretreatment’); (ii) the damaging factor and oligopeptide were added together to cells and cultured for 24 h (CoCl2, L-glutamic acid) or 3 h (menadione) followed by medium replacement (‘cotreatment’); (iii) following treatment with menadione, the cells were additionally cultured with the oligopeptides for 24 h (‘posttreatment’). The concentration of compounds was as follows: oligopeptides 5 mM, CoCl2 2.5 mM, L-glutamic acid 50 mM, menadione 25 μM.
(§2) Eventually, viability of the treated cells was evaluated with the use of MTS assay (Promega) on an Infinite M200 PRO microplate analyzer (TECAN). The cell viability was presented as a percentage of that of the control cells cultured in the absence of compounds (100% viability).

PC-12 cells [2] = assay: H2O2-induced oxidative stress in cells (DCFDA fluorescence); assay type: cell-based, rat; conditions: 5 mM, 1 h, 100 mM H2O2, HBSS
Procedure: PC-12 cells were seeded in a 96-well plate and allowed to form a subconfluent monolayer. The cells were washed with Hank’s balanced salt solution (HBSS), pre-stained with 20 μM DCFDA and rewashed with HBSS two times. The oxidative stress in the stained cells was induced by incubating them in HBSS solution containing 100 mM H2O2 for 1 h in CO2-incubator. The synthesized oligopeptides or glutathione were added to the extracellular solution in the concentration range from 1 to 10 mM in HBSS and incubated for 1 h. The bottom fluorescent signal was acquired from the treated cells on an Infinite M200PRO microplate analyzer (TECAN) at λex = 488 nm and λem = 535 nm.

PC-12 cells [3] = assay: Cytoprotection against L-glutamic acid-induced damage (MTS assay); conditions: 50 mM LGlu
Procedure: as §1, §2

PC-12 cells [4] = assay: Cytoprotection against menadione-induced damage (MTS assay); conditions: for protective effect: pretreatment 24 h, 5 mM, menadione 25 μM
Procedure: (§3) PC-12 cells were subjected to oxidative damage by CoCl2, L-glutamic acid, or menadione and treated with the oligopeptides as follows. Briefly, the pre-grown cells were seeded in a 96-well plate at a density of 60 000 cells per well and cultured overnight in FBS-containing α-MEM. Next day, the medium was replaced by a fresh one without FBS, and further manipulations were performed in FBS-free medium.
as §2

[5] = same reaction; ref Akhmadishina et al., 2017; cited from earlier work
[6] = tested on: prostate cancer (PC-3) cells; conditions: same supplementation; ref Akhmadishina et al., 2017; cited from earlier work
[7] = Cytoprotection against menadione-induced damage (MTS assay); conditions: rat, PC-12 cells
Procedure: as §3, §2

trypsin = target: T1, trypsin (Sus scrofa, UniProt P00761); assay: Tryptic cleavage of oligopeptides followed by reversed-phase HPLC; assay type: in vitro ADME, porcine; conditions: trypsin 5 μg/mL, PBS pH 7.4; for half-life at 0.5 mg/mL: pig, oligopeptide 0.5 mg/mL, read-out: 50% degradation rate (DR50)
T1 construct: purchased PanEco company (Russia); host or cells: porcine pancreas
T1 sequence (P00761 9-231): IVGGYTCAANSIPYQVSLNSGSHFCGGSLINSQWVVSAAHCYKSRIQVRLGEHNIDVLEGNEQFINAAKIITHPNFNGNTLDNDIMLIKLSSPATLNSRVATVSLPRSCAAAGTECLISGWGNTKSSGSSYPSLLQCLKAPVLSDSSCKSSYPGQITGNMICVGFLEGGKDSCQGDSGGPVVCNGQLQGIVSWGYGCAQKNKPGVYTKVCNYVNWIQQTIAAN
Procedure: The reaction mixture containing an oligopeptide (0.5 mg/mL) and trypsin (5 μg/mL) in phosphate buffered saline (PBS, pH 7.4) was incubated for different time intervals, and aliquots of digestion products were collected for reversed-phase high-performance liquid chromatography (HPLC). HPLC analysis was carried out on a Dionex UltiMate 3000 system (Thermo Scientific) using a Kromasil C18 column, 5 μm, 4.6 mm × 150 mm (AkzoNobel). Mobile phase contained (A) acetonitrile with 0.1% trifluoroacetic acid, (B) milli-Q water with 0.1% trifluoroacetic acid. Gradient scheme was as follows, 0–10 min: from 100% A to 100% B, 10–20 min: 100% A to 100% B, 20–25 min: 100% B. Flow rate was 0.5 mL/min; injection volume was 10 μL. The detection was performed at wavelengths of 220 and 260 nm. Chromatographic data were collected and treated with the aid of Chromeleon 6.80 software (Thermo Scientific). Peak height of the uncleaved oligopeptides was measured to calculate remaining concentration of the oligopeptides after tryptic cleavage. Concentration values were presented as mean ± SD (n = 3).
Enzymatic cleavage of the oligopeptides was performed in PBS solution using pancreatic trypsin as a pharmacologically relevant endopeptidase ([Vlieghe et al., 2010]; [Danial et al., 2012]). To compare proteolytic resistance of the initial and TPP-modified oligopeptides, the reaction conditions were optimized to provide a relatively slow kinetics. The concentration of uncleaved oligopeptides was detected by means of HPLC. In the absence of trypsin, both the unmodified tetrapeptides and TPP derivatives were stable during at least 48 h incubation at ambient temperature.

[8] = Fenton-like CoCl2/H2O2 reaction, ROS detected with DCFDA probe
Procedure: Fenton-like reaction was initiated by mixing 0.2 mM cobalt chloride (CoCl2) and 22 mM hydrogen peroxide (H2O2) in PBS and carried out for 60 min in the presence of or without a serially diluted oligopeptide. ROS generated in the Fenton reaction were detected by using DCFDA fluorescent probe (5 μM) at λex = 488 nm and λem = 535 nm. The effect of oligopeptides was measured as a percentage of ROS generation rate in the control reaction without effectors (100%) ([Akhmadishina et al., 2017]).

PC-12 cells [9] = assay: MTT proliferation (cytotoxicity) assay; assay type: cell-based, rat; conditions: over the whole concentration range (1 μM to 3.2 mM)
Procedure: (§4) PC-12 rat pheochromocytoma cell line (ATTC) and human skin fibroblasts (HSF) were used. HSF were isolated as detailed in ([Tsepaeva et al., 2017]). The cells were cultured aseptically in α-MEM containing 10% fetal bovine serum (FBS), 2 mM L-glutamine, 100 U/mL penicillin and 100 μg/mL streptomycin at 37°C in humidified air atmosphere with 5% CO2.
(§5) The cytotoxicity of the oligopeptides was evaluated in the concentration range from 1 μM to 3.2 mM by means of the MTT proliferation assay in 96-well microplates as described in [Tsepaeva et al. (2017)]. The cell viability was presented as a percentage of control cells grown without compounds (100% viability value). Half-maximal inhibitory concentrations (IC50) were calculated from cell viability curves using OriginPro 8.0 software.

[10] = tested on: human skin fibroblasts (HSF); assay: MTT proliferation (cytotoxicity) assay; assay type: cell-based
Procedure: as §4, §5

Dynamic light scattering = assay type: physicochemical; conditions: data not shown
[11] = Cytoprotection against L-glutamic acid-induced damage (MTS assay); conditions: rat
Procedure: as §1, §2

[Cl-].[Cl-].[Co+2] [CoCl2, cobalt (II) chloride]
cell viability, damaging factor alone (PC-12 cells [1]; CoCl2 2.5 mM, 24 h): 55%

N[C@@H](CCC(=O)N[C@@H](CS)C(=O)NCC(=O)O)C(=O)O [GSH, γ-Glu-Cys-Gly]
effect on DCFDA signal (PC-12 cells [2]): almost completely decreased the signal | effect on cell damage (PC-12 cells [1]; cotreatment, 5 mM, CoCl2 2.5 mM): insignificantly diminished cell damage | protective effect (PC-12 cells [1]; pretreatment 24 h, 5 mM, CoCl2 2.5 mM): did not exhibit a protective effect | protective effect (PC-12 cells [3]; 5 mM): relatively low protective effect | viability at 5000 µM (PC-12 cells [4]; Rattus norvegicus, PC-12, 24 h, read-out: cell viability): 32% | protective effect (PC-12 cells [4]): not when applied prior to the treatment | EC50 [5]: 544 ± 39 µM | effect on proliferation [6]: greatly stimulated proliferation

CC1=CC(=O)c2ccccc2C1=O [Men, menadione]
viability at 3 h, 25 μM [7]: ~17%

N=C(N)NCCC[C@H](NC(=O)[C@H](Cc1ccc(O)cc1)NC(=O)CC[P+](c1ccccc1)(c1ccccc1)c1ccccc1)C(=O)N[C@@H](Cc1ccccc1)C(=O)N[C@@H](CCCCN)C(N)=O [TPP-3-YRFK-NH2]
half-life at 0.5 mg/mL (trypsin; pancreatic trypsin in PBS): ~0.767 h | extent of cleavage before plateau (trypsin): ~80%

N=C(N)NCCC[C@H](NC(=O)[C@H](Cc1ccc(O)cc1)NC(=O)CCCCC[P+](c1ccccc1)(c1ccccc1)c1ccccc1)C(=O)N[C@@H](Cc1ccccc1)C(=O)N[C@@H](CCCCN)C(N)=O [TPP-6-YRFK-NH2]
half-life at 0.5 mg/mL (trypsin; pancreatic trypsin in PBS): ~1.17 h | time during which cleavage was initially retarded (trypsin): approximately 60 min | concentrations at which the inhibitory effect toward the reaction was observed ([8]; 0.2 mM CoCl2, 22 mM H2O2, PBS): > 250 µM | EC50 ([8]; ROS generation in CoCl2/H2O2 reaction, read-out: half-maximal inhibitory concentration (EC50)): 500 ± 25 µM | increase of proliferation (PC-12 cells [9]): up to 20% | concentration at which cell proliferation was decreased ([10]; effect disappeared in lower and higher concentration ranges): around 100 μM | cell viability (PC-12 cells [1]; rat): ~126% | aggregative properties (Dynamic light scattering): formed well-defined submicron aggregates

N=C(N)NCCC[C@@H](NC(=O)[C@H](Cc1ccc(O)cc1)NC(=O)CCCCC[P+](c1ccccc1)(c1ccccc1)c1ccccc1)C(=O)N[C@@H](Cc1ccccc1)C(=O)N[C@@H](CCCCN)C(N)=O [TPP-6-YrFK-NH2]
reaction time without any degradation (trypsin): at least 17 h | half-maximal inhibition of proliferation ([10]; MTT, 3 days): millimolar concentrations | protective effect (PC-12 cells [3]; pretreatment, supplemented 24 h prior to damage): completely prevented cell damage | protective effect (PC-12 cells [4]): effectively prevented cell damage | aggregative properties (Dynamic light scattering): formed well-defined submicron aggregates

N=C(N)NCCC[C@H](NC(=O)[C@@H](N)Cc1ccc(O)cc1)C(=O)N[C@@H](Cc1ccccc1)C(=O)N[C@@H](CCCCN)C(N)=O [YRFK-NH2]
half-life at 0.5 mg/mL (trypsin; isolated enzyme trypsin): ~6.17 h

NCCCC[C@H](NC(=O)[C@H](Cc1ccccc1)NC(=O)[C@@H](CCCN=C(N)N)NC(=O)[C@@H](N)Cc1ccc(O)cc1)C(N)=O [YrFK-NH2]
half-life at 0.5 mg/mL (trypsin; isolated enzyme trypsin): ~14.6 h

N[C@@H](CCC(=O)O)C(=O)O [^LGlu, L-glutamic acid]
viability at 24 h, 50 mM [11]: 37.1%
